Laboratory results taken from ChEMBL document CHEMBL3431459, “Roche carnitine palmitoyltransferase modulator screening data (supplementary data associated with the publication CHEMBL2216752)”.
Values after ≈ are worked out from the molar mass of the structure shown.

What was measured:
[1] = molecular target: T1, Carnitine O-palmitoyltransferase 1, muscle isoform (Homo sapiens, UniProt Q92523); assay: SUPPLEMENTARY: Inhibition of Carnitine palmitoyltransferase 1, muscle isoform; set-up: species or system Muscle tissue
T1 sequence (Q92523 whole entry): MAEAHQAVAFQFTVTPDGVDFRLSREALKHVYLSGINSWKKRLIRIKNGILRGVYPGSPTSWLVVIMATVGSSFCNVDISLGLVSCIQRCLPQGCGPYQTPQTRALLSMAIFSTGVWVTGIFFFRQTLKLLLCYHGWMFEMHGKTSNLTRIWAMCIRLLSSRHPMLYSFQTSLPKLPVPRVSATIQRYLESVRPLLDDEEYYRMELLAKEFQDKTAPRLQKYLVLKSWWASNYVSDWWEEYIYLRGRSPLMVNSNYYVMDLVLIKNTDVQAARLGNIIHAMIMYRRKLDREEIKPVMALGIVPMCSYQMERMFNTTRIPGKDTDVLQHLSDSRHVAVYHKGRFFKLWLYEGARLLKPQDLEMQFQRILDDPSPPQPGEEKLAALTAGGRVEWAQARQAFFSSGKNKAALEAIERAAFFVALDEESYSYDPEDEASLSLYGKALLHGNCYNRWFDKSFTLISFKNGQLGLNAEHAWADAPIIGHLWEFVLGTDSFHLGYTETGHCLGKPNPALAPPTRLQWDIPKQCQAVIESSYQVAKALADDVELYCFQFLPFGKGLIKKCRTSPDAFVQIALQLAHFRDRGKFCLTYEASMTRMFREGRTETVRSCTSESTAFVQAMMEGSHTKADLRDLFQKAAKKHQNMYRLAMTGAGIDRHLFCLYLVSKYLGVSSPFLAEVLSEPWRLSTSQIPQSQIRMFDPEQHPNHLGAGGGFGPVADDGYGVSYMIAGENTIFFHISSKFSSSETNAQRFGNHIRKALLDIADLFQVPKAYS

[2] = molecular target: T2, Carnitine O-palmitoyltransferase 2, mitochondrial (Homo sapiens, UniProt P23786); assay: (§1) SUPPLEMENTARY: Inhibition of Carnitine palmitoyltransferase 2
T2 sequence (P23786 whole entry): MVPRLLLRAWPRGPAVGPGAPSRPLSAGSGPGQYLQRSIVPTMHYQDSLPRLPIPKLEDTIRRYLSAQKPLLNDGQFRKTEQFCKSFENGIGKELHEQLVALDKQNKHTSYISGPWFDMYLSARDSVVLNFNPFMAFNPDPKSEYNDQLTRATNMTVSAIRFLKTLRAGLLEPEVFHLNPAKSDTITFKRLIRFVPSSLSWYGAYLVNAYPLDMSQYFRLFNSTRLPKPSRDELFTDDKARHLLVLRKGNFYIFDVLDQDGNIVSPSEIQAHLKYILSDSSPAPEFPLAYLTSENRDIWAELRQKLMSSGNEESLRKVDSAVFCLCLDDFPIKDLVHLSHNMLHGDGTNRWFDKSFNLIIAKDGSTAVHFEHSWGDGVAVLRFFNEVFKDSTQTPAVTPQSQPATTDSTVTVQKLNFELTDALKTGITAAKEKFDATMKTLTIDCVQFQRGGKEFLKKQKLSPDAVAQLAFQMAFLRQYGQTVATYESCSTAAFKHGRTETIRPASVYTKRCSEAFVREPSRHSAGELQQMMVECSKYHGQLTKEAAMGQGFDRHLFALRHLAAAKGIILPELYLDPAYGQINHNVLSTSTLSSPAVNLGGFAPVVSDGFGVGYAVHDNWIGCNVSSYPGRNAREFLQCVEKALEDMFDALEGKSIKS

[3] = molecular target: T3, Carnitine O-palmitoyltransferase 2, mitochondrial (Rattus norvegicus, UniProt P18886); assay: as §1
T3 sequence (P18886 whole entry): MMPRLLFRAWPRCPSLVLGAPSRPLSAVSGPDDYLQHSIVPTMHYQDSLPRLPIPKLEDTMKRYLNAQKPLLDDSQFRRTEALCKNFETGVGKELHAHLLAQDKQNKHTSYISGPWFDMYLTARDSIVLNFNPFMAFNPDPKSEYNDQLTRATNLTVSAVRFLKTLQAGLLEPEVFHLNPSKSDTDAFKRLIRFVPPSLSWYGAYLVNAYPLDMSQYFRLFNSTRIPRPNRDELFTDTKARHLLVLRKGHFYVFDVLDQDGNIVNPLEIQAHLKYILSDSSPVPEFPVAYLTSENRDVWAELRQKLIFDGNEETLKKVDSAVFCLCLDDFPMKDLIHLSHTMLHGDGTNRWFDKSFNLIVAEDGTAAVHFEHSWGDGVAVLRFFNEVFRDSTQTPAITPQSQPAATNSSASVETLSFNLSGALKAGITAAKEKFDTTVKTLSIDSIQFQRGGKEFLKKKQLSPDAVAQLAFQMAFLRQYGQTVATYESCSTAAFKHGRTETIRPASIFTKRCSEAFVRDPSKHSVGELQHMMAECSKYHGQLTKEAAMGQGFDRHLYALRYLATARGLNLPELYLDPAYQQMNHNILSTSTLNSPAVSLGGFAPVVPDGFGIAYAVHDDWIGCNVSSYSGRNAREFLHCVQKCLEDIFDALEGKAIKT

[4] = molecular target: T4, Carnitine O-palmitoyltransferase 1, liver isoform (Homo sapiens, UniProt P50416); assay: (§2) SUPPLEMENTARY: Inhibition of Carnitine palmitoyltransferase 1, liver isoform
T4 sequence (P50416 whole entry): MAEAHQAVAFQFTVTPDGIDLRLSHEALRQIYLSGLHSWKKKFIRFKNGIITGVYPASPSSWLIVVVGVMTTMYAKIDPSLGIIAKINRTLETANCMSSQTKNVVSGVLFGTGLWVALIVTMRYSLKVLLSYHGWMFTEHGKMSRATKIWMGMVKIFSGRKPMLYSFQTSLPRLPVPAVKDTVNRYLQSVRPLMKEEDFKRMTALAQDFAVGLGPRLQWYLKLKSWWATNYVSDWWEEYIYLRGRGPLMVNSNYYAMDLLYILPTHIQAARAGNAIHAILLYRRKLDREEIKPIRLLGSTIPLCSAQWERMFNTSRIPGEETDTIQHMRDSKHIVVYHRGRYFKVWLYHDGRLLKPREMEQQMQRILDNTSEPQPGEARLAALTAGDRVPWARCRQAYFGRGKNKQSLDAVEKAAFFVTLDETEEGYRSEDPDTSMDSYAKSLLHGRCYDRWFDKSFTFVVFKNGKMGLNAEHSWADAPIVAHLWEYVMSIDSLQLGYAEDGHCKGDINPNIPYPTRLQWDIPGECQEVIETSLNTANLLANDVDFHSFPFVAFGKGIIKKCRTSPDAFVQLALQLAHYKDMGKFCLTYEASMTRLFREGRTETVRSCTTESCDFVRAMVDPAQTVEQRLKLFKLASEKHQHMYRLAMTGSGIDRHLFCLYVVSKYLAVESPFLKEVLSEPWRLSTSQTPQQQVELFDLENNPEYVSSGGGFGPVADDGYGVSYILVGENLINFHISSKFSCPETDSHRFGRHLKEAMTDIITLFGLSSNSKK

[5] = molecular target: T5, Carnitine O-palmitoyltransferase 1, liver isoform (Rattus norvegicus, UniProt P32198); assay: as §2
T5 sequence (P32198 whole entry): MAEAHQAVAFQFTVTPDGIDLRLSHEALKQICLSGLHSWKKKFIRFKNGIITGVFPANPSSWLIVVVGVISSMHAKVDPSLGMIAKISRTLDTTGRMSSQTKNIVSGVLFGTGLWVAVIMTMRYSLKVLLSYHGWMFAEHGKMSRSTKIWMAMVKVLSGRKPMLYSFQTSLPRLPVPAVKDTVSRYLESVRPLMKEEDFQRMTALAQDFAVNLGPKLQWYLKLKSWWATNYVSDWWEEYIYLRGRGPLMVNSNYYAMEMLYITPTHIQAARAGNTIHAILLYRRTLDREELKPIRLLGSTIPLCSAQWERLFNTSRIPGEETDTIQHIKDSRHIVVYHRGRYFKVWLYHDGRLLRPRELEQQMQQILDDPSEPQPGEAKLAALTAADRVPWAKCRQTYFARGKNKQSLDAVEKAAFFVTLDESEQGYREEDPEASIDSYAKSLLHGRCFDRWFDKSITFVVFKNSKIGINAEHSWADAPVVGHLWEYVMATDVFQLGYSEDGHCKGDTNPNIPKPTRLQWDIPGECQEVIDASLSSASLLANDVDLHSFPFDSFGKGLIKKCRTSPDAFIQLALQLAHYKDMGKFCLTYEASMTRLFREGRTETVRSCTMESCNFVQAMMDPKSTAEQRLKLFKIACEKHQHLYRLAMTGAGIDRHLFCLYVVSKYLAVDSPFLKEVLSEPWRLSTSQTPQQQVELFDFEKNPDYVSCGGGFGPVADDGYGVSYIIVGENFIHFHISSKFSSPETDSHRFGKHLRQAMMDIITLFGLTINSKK

[6] = SUPPLEMENTARY: Lyophilisation Solubility Assay (LYSA); format: physicochemical; settings: read-out: Kinetic_solubility
[7] = SUPPLEMENTARY: Lipophilicity (log D) Determination by high-throughput shake-flask; format: physicochemical; settings: octanol/water
[8] = SUPPLEMENTARY: PAMPA permeability assay; format: physicochemical; settings: read-out: Permeability

SMILES | IC50 [1] | IC50 [2] | IC50 [3] | IC50 [4] | IC50 [5] | solubility kinetic [6] | logD [7] | Papp [8]
COc1ccc(Cl)cc1S(=O)(=O)N1CCNc2ccc(C(=O)Nc3ccc(C(=O)O)c(F)c3)cc21 | 6.42 µM | 41.6 µM | > 100 µM | 112 nM | 162 nM | 58 µg/mL (≈ 112 µM) | 0.07 | 0.23 ×10⁻⁶ cm/s
O=C([C@H]1CCCCN1C(=O)COc1ccccc1)N1Cc2ccc(O[C@@H]3CCOC3)cc2C1 | > 100 µM | 0.489 µM | 1.41 µM | 63.6 nM | 41.6 nM | 81 µg/mL (≈ 180 µM) | 2.58 | 11.5 ×10⁻⁶ cm/s
COc1ccc(Cl)cc1CN1C(=O)C(C)(C)c2ccc(C(=O)Nc3nc(CC(=O)O)cs3)cc21 | 0.535 µM | > 100 µM | > 100 µM | 46.8 nM | 19.7 nM | 418 µg/mL (≈ 836 µM) | 1.21 | 0.96 ×10⁻⁶ cm/s
O=C(COc1ccccc1)N1CCCC[C@@H]1c1nc(-c2ccc(F)c(F)c2)n[nH]1 | > 100 µM | > 100 µM | > 100 µM | 239 nM | 598 nM | 77 µg/mL (≈ 193 µM) | 2.77 | 1.72 ×10⁻⁶ cm/s
O=C(O)Cc1csc(NC(=O)c2ccc3c(c2)N(S(=O)(=O)c2cccc(Cl)c2)CC3)n1 | 0.601 µM | > 100 µM | > 100 µM | 40.7 nM | 25.8 nM | 260 µg/mL (≈ 544 µM) | 0.34 | 2.91 ×10⁻⁶ cm/s
O=C1CN(c2cccc(-c3n[nH]c([C@H]4CCCCN4C(=O)COc4ccccc4)n3)c2)C(=O)N1 | 61.8 µM | 23.5 µM | 56.9 µM | 96.8 nM | 150 nM | 54 µg/mL (≈ 117 µM) | 2.16 | 1.92 ×10⁻⁶ cm/s
NS(=O)(=O)c1cccc(-c2noc([C@H]3CCCCN3C(=O)COc3ccccc3)n2)c1 | > 100 µM | 61.4 µM | 57.9 µM | 87 nM | 205 nM | 33 µg/mL (≈ 74.6 µM) | 2.17 | 1.63 ×10⁻⁶ cm/s
O=C(COc1ccccc1)N1CCCC[C@@H]1c1noc(-c2cccc(N3CCCS3(=O)=O)c2)n1 | > 100 µM | > 100 µM | > 100 µM | 67 nM | 162 nM | < 1 µg/mL | 2.89 | 1 ×10⁻⁶ cm/s

Further lines, results first:

IC50 [1] | IC50 [2] | IC50 [3] | IC50 [4] | IC50 [5] | solubility kinetic [6] | logD [7] | Papp [8] | SMILES
83.3 µM | 29.7 µM | 69.7 µM | 59.9 nM | 458 nM | 70 µg/mL (≈ 157 µM) | 2.66 | 7.36 ×10⁻⁶ cm/s | O=C(COc1ccccc1)N1CCCC[C@@H]1c1noc(-c2cccc(-n3cc[nH]c3=O)c2)n1
> 100 µM | 39.8 µM | 42.9 µM | 211 nM | 1150 nM | 73 µg/mL (≈ 175 µM) | 2.35 | 3.29 ×10⁻⁶ cm/s | O=C1Cc2ccc(-c3n[nH]c([C@H]4CCCCN4C(=O)COc4ccccc4)n3)cc2N1
> 100 µM | 13.9 µM | 61.5 µM | 87.4 nM | 683 nM | 53 µg/mL (≈ 132 µM) | 2.71 | 1.64 ×10⁻⁶ cm/s | O=C(COc1ccccc1)N1CCCC[C@@H]1c1nc(-c2ccc3[nH]ncc3c2)n[nH]1
> 100 µM | 7.28 µM | 79.2 µM | 166 nM | 247 nM | 33 µg/mL (≈ 84.7 µM) | 2.54 | 8.44 ×10⁻⁶ cm/s | N#Cc1ccc(-c2nc([C@H]3CCCCN3C(=O)COc3ccccc3)no2)cn1
> 100 µM | 33.4 µM | > 100 µM | 91.2 nM | 96.3 nM | 11 µg/mL (≈ 25.6 µM) | 3.08 | 2.25 ×10⁻⁶ cm/s | O=C(COc1ccccc1)N1CCCC[C@@H]1c1noc(-c2ccc(-n3cncn3)cc2)n1
27.7 µM | > 100 µM | > 100 µM | 146 nM | 140 nM | > 685 µg/mL | -1.31 | 0.07 ×10⁻⁶ cm/s | CCOc1ccc(C(=O)Nc2ccc(C(=O)O)c(F)c2)cc1N(CCS(=O)O)S(=O)(=O)c1cc(Cl)ccc1OC
